The source of these data is ChEMBL document CHEMBL1144080, “Antihyperglycemic sesquiterpenes from Psacalium decompositum” (1999).

The structures appear in SMILES notation.

Type in all cases: functional
Experiment [1] concerns Mus musculus. Briefly: Antihyperglycemic activity in C57BL-6J ob/ob mouse type 2 diabetic model assessed as changes in plasma glucose level at 1.5 mmol/kg, po administered as single dose for 3 hrs.
In experiment [2] the test system is Mus musculus. Briefly: Antihyperglycemic activity in C57BL-6J ob/ob mouse type 2 diabetic model assessed as changes in plasma glucose level at 1.5 mmol/kg, po administered as single dose for 24 hrs.
Experiment [3] concerns Mus musculus. The experiment can be described thus: Antihyperglycemic activity in C57BL-6J ob/ob mouse type 2 diabetic model assessed as body weight per mouse at 1.5 mmol/kg, po administered as single dose for 24 hrs.
In experiment [4] the test system is Mus musculus. The experiment can be described thus: Antihyperglycemic activity in C57BL-6J ob/ob mouse type 2 diabetic model assessed as food intake per mouse at 1.5 mmol/kg, po administered as single dose.
The test system of experiment [5] is Mus musculus. Briefly: Antihyperglycemic activity in C57BL-6J ob/ob mouse type 2 diabetic model assessed as changes in plasma glucose level at 1000 mg/kg, po administered as single dose for 3 hrs.
The test system of experiment [6] is Mus musculus. Briefly: Antihyperglycemic activity in C57BL-6J ob/ob mouse type 2 diabetic model assessed as changes in plasma glucose level at 1000 mg/kg, po administered as single dose for 24 hrs.
Experiment [7] concerns Mus musculus. The experiment can be described thus: Antihyperglycemic activity in C57BL-6J ob/ob mouse type 2 diabetic model assessed as body weight per mouse at 1000 mg/kg, po administered as single dose for 24 hrs.
For experiment [8], the system named is Mus musculus. The experiment can be described thus: Antihyperglycemic activity in C57BL-6J ob/ob mouse type 2 diabetic model assessed as food intake per mouse at 1000 mg/kg, po administered as single dose.
For experiment [9], the system named is Mus musculus. Briefly: Antihyperglycemic activity in C57BL-6J ob/ob mouse type 2 diabetic model assessed as changes in plasma glucose level at 1.09 mmol/kg, po administered as single dose for 3 hrs.
The test system of experiment [10] is Mus musculus. The experiment can be described thus: Antihyperglycemic activity in C57BL-6J ob/ob mouse type 2 diabetic model assessed as changes in plasma glucose level at 1.09 mmol/kg, po administered as single dose for 24 hrs.
For experiment [11], the system named is Mus musculus. The experiment can be described thus: Antihyperglycemic activity in C57BL-6J ob/ob mouse type 2 diabetic model assessed as body weight per mouse at 1.09 mmol/kg, po administered as single dose for 24 hrs.
Experiment [12] relates to Mus musculus. Briefly: Antihyperglycemic activity in C57BL-6J ob/ob mouse type 2 diabetic model assessed as food intake per mouse at 1.09 mmol/kg, po administered as single dose.

With `CN(C)C(=N)NC(=N)N` [METFORMIN], the Activity in experiment [1] was -151.8 mg/dL; in [2], 76.1 mg/dL; in [3], 43.2 g; in [4], 4.5 g.
As for `Cc1coc2c(O)c3c(c(C)c12)[C@@H](C)CCC3` [CACALOL], the Activity in [5] is -105.1 mg/dL; in experiment [6] it was -13.4 mg/dL; in experiment [7], 45 g; in [8] it was 4.6 g; in experiment [9], -124 mg/dL; in experiment [10], 48.3 mg/dL. The Activity is listed as 43.5 g in experiment [11] and 4.1 g in experiment [12].
Take `Cc1coc2c1[C@@](C)(O)C1=C(CCC[C@@H]1C)C2=O` [EPICACALONE]: the Activity in experiment [5] was -105.1 mg/dL; in experiment [6], -13.4 mg/dL; in experiment [7], 45 g; in [8] it was 4.6 g; in experiment [9], -42.4 mg/dL; in [10], 30.9 mg/dL. Moreover, the Activity in experiment [11] came out at 43.3 g; in [12], 4 g.
With `Cc1coc2c1[C@](C)(O)C1=C(CCC[C@@H]1C)C2=O` [CACALONE], the Activity is -105.1 mg/dL in experiment [5]; -13.4 mg/dL in experiment [6]; 45 g in [7]; 4.6 g in [8]; -3 mg/dL in experiment [9]; 29.5 mg/dL in experiment [10]. Further, the Activity in experiment [11] is 41.4 g; in experiment [12] it was 4.8 g.
